pEC50: −log10 of the molar value.
Test system: HBV
Assay: HBV infection in HepG2-NTCP cells (HBeAg AlphaLISA in supernatants)
Assay type: cell-based
Details: Hepatitis B virus, 192 h; HBV infection of HepG2-NTCP cells; HBeAg in supernatants at day 8 post infection; read-out: Cellular EC50
Procedure, shortened: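 Readout was day-8 supernatant HBeAg by AlphaLISA, with EC50 set against DMSO controls and binned A<0.1 μM, B 0.1-1 μM, C>1 μM. Compounds were added 2 h before HBV (2000 GE/cell, 4% PEG, 0.5% DMSO) to HepG2-NTCP A3 cells; from day 1 medium held 2.5% DMSO.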

Compared with `CN1[C@H](C2CCCCC2)CN(c2ccccc2)c2cc(Cl)c(N3CCC(F)(C(=O)O)C3)cc2S1(=O)=O` (mixture of isomers) [Example 609, 1-((R)-7-chloro-3-cyclohexyl-2-methyl-1,1-dioxido-5-phenyl-2,3,4,5-tetrahydrobenzo[f][1,2,5]thiadiazepin-8-yl)-3-fluoropyrrolidine-3-carboxylic acid], `CN1[C@H](C2CCCCC2)CN(c2ccccc2)c2cc(Cl)c([C@H]3C[C@@H](C(=O)O)C3)cc2S1(=O)=O` [Example 607, (1S,3s)-3-((R)-7-chloro-3-cyclohexyl-2-methyl-1,1-dioxido-5-phenyl-2,3,4,5-tetrahydrobenzo[f][1,2,5]thiadiazepin-8-yl)cyclobutane-1-carboxylic acid] is lower in pEC50: greater than 7.00 for the first, less than 6.00 for the second. The first is the more potent here.

`CN1[C@H](C2CCCCC2)CN(c2ccccc2)c2cc(Cl)c(-c3ccc(N)c(C(=O)O)c3)cc2S1(=O)=O` [Example 157, (R)-2-amino-5-(7-chloro-3-cyclohexyl-2-methyl-1,1-dioxido-5-phenyl-2,3,4,5-tetrahydrobenzo[f][1,2,5]thiadiazepin-8-yl)benzoic acid] and `CN1[C@H](C2CCCCC2)CN(c2ccccc2)c2cc(C3COC3)c(-c3ccc(F)c(C(=O)O)c3)cc2S1(=O)=O` [Example 588] fall in the same range of pEC50: 6.00 to 7.00 for the first, 6.00 to 7.00 for the second.

`CC(=O)NS(=O)(=O)c1ccc(-c2cc3c(cc2Cl)N(c2ccccc2)C[C@@H](C2CCCCC2)N(C)S3(=O)=O)s1` [Example 225] and `CN1[C@H](C2CCCCC2)CN(c2ccccc2)c2cc(C#CC(C)(C)O)c(-c3ccc(F)c(C(=O)O)c3)cc2S1(=O)=O` [Example 603] fall in the same range of pEC50: 6.00 to 7.00 for the first, 6.00 to 7.00 for the second.

`CN1[C@H](C2CCCCC2)CNc2cc(C3CCN(C(=O)OC(C)(C)C)CC3)c(-c3ccc(F)c(C(=O)O)c3)cc2S1(=O)=O` [Example 584, (R)-5-(7-(1-(tert-butoxycarbonyl)piperidin-4-yl)-3-cyclohexyl-2-methyl-1,1-dioxido-2,3,4,5-tetrahydrobenzo[f][1,2,5]thiadiazepin-8-yl)-2-fluorobenzoic acid] and `CN1[C@H](C2CCCCC2)CNc2cc(C3CCC3)c(-c3ccc(F)c(C(=O)O)c3)cc2S1(=O)=O` [Example 586] fall in the same range of pEC50: 6.00 to 7.00 for the first, 6.00 to 7.00 for the second.

`CN1[C@H](C2CCCCC2)CNc2cc(C34CC(C3)C4)c(-c3ccc(F)c(C(=O)O)c3)cc2S1(=O)=O` [Example 585] and `CN1[C@H](C2CCCCC2)CN(c2ccccc2)c2cc(C34CC(C3)C4)c(-c3ccc(F)c(C(=O)O)c3)cc2S1(=O)=O` [Example 587] fall in the same range of pEC50: 6.00 to 7.00 for the first, 6.00 to 7.00 for the second.

Going from `CN1[C@H](C2CCCCC2)CN(c2ccccc2)c2cc(C3CC(F)(F)C3)c(-c3ccc(F)c(C(=O)O)c3)cc2S1(=O)=O` [Example 589] to `CN1[C@H](C2CCCCC2)CN(c2ccccc2)c2cc(C3CCNCC3)c(-c3ccc(F)c(C(=O)O)c3)cc2S1(=O)=O` [Example 596], the pEC50 falls from greater than 7.00 to less than 6.00. The first is the more potent here.

`CN1[C@H](C2CCCCC2)CN(c2ccccc2)c2cc(C3CCN(C(=O)OC(C)(C)C)CC3)c(-c3ccc(F)c(C(=O)O)c3)cc2S1(=O)=O` [Example 590] and `CN1[C@H](C2CCCCC2)CN(c2ccccc2)c2cc(C3CCN(C(=O)OC(C)(C)C)C3)c(-c3ccc(F)c(C(=O)O)c3)cc2S1(=O)=O` (stereo partly drawn) [Example 593] fall in the same range of pEC50: 6.00 to 7.00 for the first, 6.00 to 7.00 for the second.

First: CN1[C@H](C2CCCCC2)CN(c2ccccc2)c2cc(C3CCOCC3)c(-c3ccc(F)c(C(=O)O)c3)cc2S1(=O)=O [Example 591]
Second: CC(=O)N1CCC(c2cc3c(cc2-c2ccc(F)c(C(=O)O)c2)S(=O)(=O)N(C)[C@H](C2CCCCC2)CN3c2ccccc2)CC1 [Example 597]
The pEC50 of the first is higher: 6.00 to 7.00 for the first, less than 6.00 for the second. The first is the more potent here.

`CC(C)C[C@@H]1CN(c2ccccc2)c2cc(C3CCN(C(=O)OC(C)(C)C)CC3)c(-c3ccc(F)c(C(=O)O)c3)cc2S(=O)(=O)N1C` [Example 592] and `CN1[C@H](C2CCCCC2)CN(c2ccccc2)c2cc(C3CN(C(=O)OC(C)(C)C)C3)c(-c3ccc(F)c(C(=O)O)c3)cc2S1(=O)=O` [Example 594] fall in the same range of pEC50: 6.00 to 7.00 for the first, 6.00 to 7.00 for the second.

`CN1[C@H](C2CCCCC2)CN(c2ccccc2)c2cc(C3CCN(C(=O)c4cnn(C)c4)CC3)c(-c3ccc(F)c(C(=O)O)c3)cc2S1(=O)=O` [Example 598] and `CN1[C@H](C2CCCCC2)CN(c2ccccc2)c2cc(C3CCN(C(=O)c4ccno4)CC3)c(-c3ccc(F)c(C(=O)O)c3)cc2S1(=O)=O` [Example 599] cannot be ordered by pEC50: less than 6.00 for the first, less than 6.00 for the second.

First: COCCC(=O)N1CCC(c2cc3c(cc2-c2ccc(F)c(C(=O)O)c2)S(=O)(=O)N(C)[C@H](C2CCCCC2)CN3c2ccccc2)CC1 [Example 600]
Second: CN1[C@H](C2CCCCC2)CN(c2ccccc2)c2cc(C3CCN(C(=O)C(F)(F)F)C3)c(-c3ccc(F)c(C(=O)O)c3)cc2S1(=O)=O (stereo partly drawn) [Example 601]
The pEC50 of the first is lower: less than 6.00 for the first, 6.00 to 7.00 for the second. The second is the more potent here.

`CN1[C@H](C2CCCCC2)CN(c2ccccc2)c2cc(C#Cc3ccsc3)c(-c3ccc(F)c(C(=O)O)c3)cc2S1(=O)=O` [Example 602, (R)-5-(3-cyclohexyl-2-methyl-1,1-dioxido-5-phenyl-7-(thiophen-3-ylethynyl)-2,3,4,5-tetrahydrobenzo[f][1,2,5]thiadiazepin-8-yl)-2-fluorobenzoic acid] and `COC(C)(C)C#Cc1cc2c(cc1-c1ccc(F)c(C(=O)O)c1)S(=O)(=O)N(C)[C@H](C1CCCCC1)CN2c1ccccc1` [Example 604] cannot be ordered by pEC50: greater than 7.00 for the first, greater than 7.00 for the second.

Target: T1, NTCP (Homo sapiens, UniProt Q14973)
T1 construct: expressed in transfected cells; host or cells: HepG2-NTCP (clone A3, kept under puromycin)
T1 sequence (Q14973 1-349): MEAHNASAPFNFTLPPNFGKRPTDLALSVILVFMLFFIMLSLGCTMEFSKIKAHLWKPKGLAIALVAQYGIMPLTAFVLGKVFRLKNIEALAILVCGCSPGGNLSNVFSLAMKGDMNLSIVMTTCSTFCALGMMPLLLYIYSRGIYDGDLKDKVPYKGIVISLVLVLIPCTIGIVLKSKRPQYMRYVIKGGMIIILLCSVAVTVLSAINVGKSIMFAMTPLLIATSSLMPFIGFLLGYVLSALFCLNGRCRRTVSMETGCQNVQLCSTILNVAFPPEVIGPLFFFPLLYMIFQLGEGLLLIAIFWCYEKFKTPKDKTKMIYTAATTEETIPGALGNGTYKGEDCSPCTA
Assay: HepG2-NTCP preS1 binding competition assay (FITC-labeled myristoylated preS1 peptide)
Details: HepG2-NTCP cells; competition with FITC-labeled preS1 peptide
Experimental: HepG2-NTCP preS1 Binding Competition Assay
Myristoylated preS1 peptide (2-48 aa) conjugated to a C-terminal FITC tag was synthesized to evaluate preS1 binding to NTCP-expressing cells. HepG2-NTCP cells seeded in 384-wells were pre-treated with compounds for 2 hours prior to the addition of FITC-labeled preS1 peptide. After co-incubation for 30 minutes, unbound FITC-preS1 peptide was washed twice with PBS, and the fluorescence of preS1-FITC bound to cell surface was detected by Envision plate reader. EC50 ranges are as follows: A<0.1 μM; B 0.1-1 μM; C>1 μM.

Compared with `CN1[C@H](C2CCCCC2)CN(c2ccccc2)c2cc(Cl)c(N3CCC(F)(C(=O)O)C3)cc2S1(=O)=O` (mixture of isomers) [Example 609, 1-((R)-7-chloro-3-cyclohexyl-2-methyl-1,1-dioxido-5-phenyl-2,3,4,5-tetrahydrobenzo[f][1,2,5]thiadiazepin-8-yl)-3-fluoropyrrolidine-3-carboxylic acid], `CN1[C@H](C2CCCCC2)CN(c2ccccc2)c2cc(Cl)c(N3CC[C@@H](C(=O)O)C3)cc2S1(=O)=O` [Example 610] is lower in pEC50: greater than 7.00 for the first, 6.00 to 7.00 for the second. The first is the more potent here.

`CN1[C@H](C2CCCCC2)CN(c2ccccc2)c2cc(Cl)c(-c3ccc(N)c(C(=O)O)c3)cc2S1(=O)=O` [Example 157, (R)-2-amino-5-(7-chloro-3-cyclohexyl-2-methyl-1,1-dioxido-5-phenyl-2,3,4,5-tetrahydrobenzo[f][1,2,5]thiadiazepin-8-yl)benzoic acid] and `CN1[C@H](C2CCCCC2)CN(c2ccccc2)c2cc(Cl)c(-c3cc(Cl)c(N)c(C(=O)O)c3)cc2S1(=O)=O` [Example 192] fall in the same range of pEC50: 6.00 to 7.00 for the first, 6.00 to 7.00 for the second.

First: CN1[C@H](C2CCCCC2)CN(c2ccccc2)c2cc(Cl)c(-c3ccc(S(N)(=O)=O)s3)cc2S1(=O)=O [Example 201]
Second: CC(=O)NS(=O)(=O)c1ccc(-c2cc3c(cc2Cl)N(c2ccccc2)C[C@@H](C2CCCCC2)N(C)S3(=O)=O)s1 [Example 225]
The pEC50 of the first is lower: less than 6.00 for the first, 6.00 to 7.00 for the second. The second is the more potent here.

`CN1[C@H](C2CCCCC2)CN(c2ccccc2)c2cc(Cl)c(-c3ccc(S(=O)(=O)NC(=O)c4ccccc4)s3)cc2S1(=O)=O` [Example 226] and `CC(C)C(=O)NS(=O)(=O)c1ccc(-c2cc3c(cc2Cl)N(c2ccccc2)C[C@@H](C2CCCCC2)N(C)S3(=O)=O)s1` [Example 227] fall in the same range of pEC50: 6.00 to 7.00 for the first, 6.00 to 7.00 for the second.

`CN1[C@H](C2CCCCC2)CN(c2ccccc2)c2cc(Cl)c(-c3cc(NC(=O)OCCOC(C)(C)C)c(C(=O)O)s3)cc2S1(=O)=O` [Example 262] and `COCCCOC(=O)Nc1cc(-c2cc3c(cc2Cl)N(c2ccccc2)C[C@@H](C2CCCCC2)N(C)S3(=O)=O)sc1C(=O)O` [Example 263] cannot be ordered by pEC50: greater than 7.00 for the first, greater than 7.00 for the second.

First: COC1CC(OC(=O)Nc2cc(-c3cc4c(cc3Cl)N(c3ccccc3)C[C@@H](C3CCCCC3)N(C)S4(=O)=O)sc2C(=O)O)C1 (stereo partly drawn) [Example 264]
Second: CN1[C@H](C2CCCCC2)CN(c2ccccc2)c2cc(O[C@H]3C[C@H](O)C3)c(-c3cc(F)c(C(=O)O)s3)cc2S1(=O)=O [Example 503]
The pEC50 of the first is higher: greater than 7.00 for the first, 6.00 to 7.00 for the second. The first is the more potent here.

First: CN(C)C(=O)c1ccc(N2C[C@@H](C3CCCCC3)N(C)S(=O)(=O)c3cc(-c4ccc(F)c(C(=O)O)c4)c(Cl)cc32)cc1 [Example 315]
Second: CN1[C@H](C2CCCCC2)CN(c2ccccc2)c2cc(OC3COC3)c(-c3ccc(F)c(C(=O)O)c3)cc2S1(=O)=O [Example 370]
The pEC50 of the first is lower: less than 6.00 for the first, 6.00 to 7.00 for the second.

Work on `CN1[C@H](C2CCCCC2)CN(c2ccccc2)c2cc(Cl)c(N3CC[C@H](C(=O)O)C3)cc2S1(=O)=O` [Example 611] yielded a pEC50 of 6.00 to 7.00.

Source: patent publication US20240368096A1 (Enanta Pharmaceuticals, Inc., priority 2022, published 2024)
